Reference: patent US10597380B2, “Pyridazinone-based broad spectrum anti-influenza inhibitors” (Hoffmann-La Roche Inc., priority 2017, dated 2020)

What follows are compounds tested on Influenza A/WSN/33-Luciferase virus (assay: microbe, parasite or virus in culture). Settings: A549, 72 h, luciferase signal three days later, read-out: IC50 antiviral activity (Luciferase reporter assay).
Format: cell-based
Cn1cccc(Nc2nn(-c3ccc(OC(F)(F)F)cc3)c(=O)c3c2CCC3)c1=O [Example 28, 1-[(1-methyl-2-oxo-3-pyridyl)amino]-3-[4-(trifluoromethoxy)phenyl]-6,7-dihydro-5H-cyclopenta[d]pyridazin-4-one] was tested, and the IC50 was 8 nM. Work on Cc1cc(Nc2nn(-c3ccc(OC(F)(F)F)cc3)c(=O)c3c2CCC3)c(=O)n(C)n1 [Example 29, 1-[(2,6-dimethyl-3-oxo-pyridazin-4-yl)amino]-3-[4-(trifluoromethoxy)phenyl]-6,7-dihydro-5H-cyclopenta[d]pyridazin-4-one] yielded an IC50 of 22 nM. In the case of Cn1cncc(Nc2nn(-c3ccc(OC(F)(F)F)cc3)c(=O)c3c2CCC3)c1=O [Example 30, 1-[(1-methyl-6-oxo-pyrimidin-5-yl)amino]-3-[4-(trifluoromethoxy)phenyl]-6,7-dihydro-5H-cyclopenta[d]pyridazin-4-one], the IC50 is reported as 37 nM. Cn1cc(F)cc(Nc2nn(-c3ccc(OC(F)(F)F)cc3)c(=O)c3c2CCC3)c1=O [Example 31, 1-[(5-fluoro-1-methyl-2-oxo-3-pyridyl)amino]-3-[4-(trifluoromethoxy)phenyl]-6,7-dihydro-5H-cyclopenta[d]pyridazin-4-one] showed an IC50 of 8 nM. Cc1cc(Nc2nn(-c3ccc(OC(F)(F)F)cc3)c(=O)c3c2CCC3)c(=O)n(C)c1 [Example 32, 1-[(1,5-dimethyl-2-oxo-3-pyridyl)amino]-3-[4-(trifluoromethoxy)phenyl]-6,7-dihydro-5H-cyclopenta[d]pyridazin-4-one] was tested, and the IC50 was 12 nM. With Cn1cc(Cl)cc(Nc2nn(-c3ccc(OC(F)(F)F)cc3)c(=O)c3c2CCC3)c1=O [Example 33, 1-[(5-chloro-1-methyl-2-oxo-3-pyridyl)amino]-3-[4-(trifluoromethoxy)phenyl]-6,7-dihydro-5H-cyclopenta[d]pyridazin-4-one] the IC50 was 6 nM. Cn1cc(C(F)(F)F)cc(Nc2nn(-c3ccc(OC(F)(F)F)cc3)c(=O)c3c2CCC3)c1=O [Example 34, 1-[[1-methyl-2-oxo-5-(trifluoromethyl)-3-pyridyl]amino]-3-[4-(trifluoromethoxy)phenyl]-6,7-dihydro-5H-cyclopenta[d]pyridazin-4-one] showed an IC50 of 195 nM. CCc1cc(Nc2nn(-c3ccc(OC(F)(F)F)cc3)c(=O)c3c2CCC3)c(=O)n(C)c1 [Example 35, 1-[(5-ethyl-1-methyl-2-oxo-3-pyridyl)amino]-3-[4-(trifluoromethoxy)phenyl]-6,7-dihydro-5H-cyclopenta[d]pyridazin-4-one] was tested, and the IC50 was 68 nM. For CC(C)c1cc(Nc2nn(-c3ccc(OC(F)(F)F)cc3)c(=O)c3c2CCC3)c(=O)n(C)c1 [Example 36, 1-[(5-isopropyl-1-methyl-2-oxo-3-pyridyl)amino]-3-[4-(trifluoromethoxy)phenyl]-6,7-dihydro-5H-cyclopenta[d]pyridazin-4-one], the IC50 was 579 nM. COC(=O)CCCn1cc(Cl)cc(Nc2nn(-c3ccc(OC(F)(F)F)cc3)c(=O)c3c2CCC3)c1=O [Example 37, methyl 4-[5-chloro-2-oxo-3-[[4-oxo-3-[4-(trifluoromethoxy)phenyl]-6,7-dihydro-5H-cyclopenta[d]pyridazin-1-yl]amino]-1-pyridyl]butanoate] showed an IC50 of 20 nM. Compound COC(=O)CCCn1cccc(Nc2nn(-c3ccc(OC(F)(F)F)cc3)c(=O)c3c2CCC3)c1=O [Example 38, methyl 4-[2-oxo-3-[[4-oxo-3-[4-(trifluoromethoxy)phenyl]-6,7-dihydro-5H-cyclopenta[d]pyridazin-1-yl]amino]-1-pyridyl]butanoate] has an IC50 of 23 nM. With CCOC(=O)COCCn1cccc(Nc2nn(-c3ccc(OC(F)(F)F)cc3)c(=O)c3c2CCC3)c1=O [Example 39, ethyl 2-[2-[2-oxo-3-[[4-oxo-3-[4-(trifluoromethoxy)phenyl]-6,7-dihydro-5H-cyclopenta[d]pyridazin-1-yl]amino]-1-pyridyl]ethoxy]acetate] the IC50 was 230 nM.
